Key:
Type in all cases: in vivo, human
[1] = test system: patients with transtendinous rotator cuff tears; experiment: Example 3: subacromial injection 2 to 6 weeks before arthroscopic cuff repair, postoperative pain and mobility
Description: A series of 5 patients with a mean age 62 years and transtendinous rotator cuff tears and having been scheduled for arthroscopic cuff repair was 2 to 6 weeks (13 days for two patients and 16,23 and 41 days for the other three patients) preoperatively treated with a subacromial injection of 0.4 microgram resiniferatoxin dissolved in 10 ml 2% lidocaine.
Postinjection pain was controlled with ice packs and NSAIDS. The postoperative pain protocol included 48 hours of interscalene continuous regional anesthesia. Thereafter pain was exceptionally low (VAS <2) in four out of five patients.

[2] = test system: patient with symptomatic hallux valgus; experiment: Example 5: intra-articular injection one month before hallux valgus surgery, postoperative pain; conditions: 200 ng intra-articular one month preoperatively; 2 ml 2% Lidocaine 5 minutes prior; 1 patient
Description: A patient with symptomatic hallux valgus was scheduled for surgical treatment. One month preoperatively an intra articular injection 1 ml resiniferatoxin (200 ng) was administered into the interphalangeal join space with prior (5 minutes) periarticular anesthesia using 2 ml 2% Lidocaine.

[3] = test system: patients with symptoms of frozen shoulders; experiment: Example 4: intra-articular treatment before arthroscopic capsular release, pain and mobility
Description: A series of 3 patients with symptoms of frozen shoulders (VAS >6) for at least six month were scheduled for arthroscopic capsular release. All patients were treated with an intra-articular treatment with 2 micrograms of resiniferatoxin dissolved in 10 ml of physiological salt solution containing 4 mM Ca^2+ with immediate prior administration (2.5 and 15 minutes prior to resiniferatoxin) of a local anesthetic (5 ml 0.25% ropivacaine) at 29, 32 and 40 days preoperatively.
Thereafter pain regressed 2 weeks after injection to a level below VAS 3 in all patients. The postoperative pain treatment after capsulotomy included 5 days of regional continuous anesthesia.

[4] = test system: patient with anterior cruciate ligament rupture with medial meniscal tear; experiment: Example 2: intra-articular treatment 3 weeks before cruciate ligament and meniscal repair, postoperative pain and range of motion
Description: A physiotherapist suffered a traumatic anterior cruciate ligament rupture with medial meniscal tear. Due to unacceptable symptoms of instability a surgical reconstruction was scheduled. During the waiting period for the operation 3 weeks preoperatively an intra-articular treatment with 2 micrograms of resiniferatoxin dissolved in Ringers lactate buffer at a concentration of 200 ng/ml with immediate prior administration (i.e. within 1 minute) of a local anesthetic (5 ml 0.5% bupivacaine) was applied.
Three weeks later a crucial ligament repair using patellar tendon autograft and arthroscopic meniscal repair was performed. Postoperative pain was restricted to the first 72 hours and below VAS 2 thereafter. Unexpectedly the passive range of motion was flex-extension of 130-0-0° 3 weeks after the operation and further improving thereafter with minimal (VAS 1) pain.

[5] = test system: patient with hip osteoarthritis; experiment: Example 1: intra-articular hip infiltration one month before total hip prosthesis, postoperative pain
Description: A patient with hip osteoarthritis and pain for 2 years was not treatable anymore with conventional pain medication (NSAIDS, Paracetamol, opioids, etc.) or infiltration (corticosteroids, hyaluronic acid). Therefore the patient was treated with an infiltration into the hip joint under fluoroscopic control with 0.8 micrograms of Resiniferatoxin dissolved in 250 microliters of Ethanol and mixed with 5 ml buffer solution.
10 minutes prior to the injection a local anesthetic (5 ml lidocaine 2%) was applied under fluoroscopic control intra-articularly to prevent injection pain. Moderate post-injection pain after RTX was controlled with oral administration of morphine. One month later the patient still suffered from relevant impairment of hip mobility and peritrochanteric pain and was treated with implantation of a total hip prosthesis.

[6] = test system: patient with painful rizarthrosis; experiment: Example 6: injection into painful joint base before surgery for rizarthrosis, postoperative pain
Description: A patient with painful rizarthrosis was scheduled for surgical treatment of the disease on week prior to the operation. the patient was injected with 1 ml of a physiological saline solution containing 0.9 mg capsaicin into the painful joint base without prior administration of local anesthetics. The massive pain was treated with ice packs and inter-muscular morphine.

| Structure (SMILES) | postoperative pain (VAS) ([1]; after 48 hours of interscalene regional anesthesia, in four out of five patients, 0.4 microgram in 10 ml 2% lidocaine subacromial) | clinical signs of stiff or frozen shoulder ([1]; postoperative course up to 1 year follow up) | glenohumeral abduction ([1]; six weeks postoperatively) | pain upon passive external rotation ([1]; six weeks postoperatively, 5 patients) | passive external rotation, difference to contralateral side ([1]; six weeks postoperatively, all patients) [°] | need for pain medication after surgery [2] | pain level (VAS) ([3]; 2 weeks after injection, before surgery, all 3 patients, 2 micrograms intra-articular with 4 mM Ca2+, 5 ml 0.25% ropivacaine prior, baseline VAS >6) | postoperative pain (VAS) ([3]; after 5 days of regional continuous anesthesia following capsulotomy, all patients) | maintenance of intraoperatively achieved mobility ([3]; after capsulotomy, all patients) | duration of postoperative pain ([4]; 2 micrograms intra-articular 3 weeks preoperatively, 5 ml 0.5% bupivacaine immediately prior, 1 patient) [h] | postoperative pain (VAS) ([4]; after the first 72 hours) | pain (VAS) ([4]; from 3 weeks after the operation, range of motion further improving) | post-injection pain ([5]; 0.8 micrograms intra-articular hip, 5 ml lidocaine 2% 10 minutes prior, controlled with oral morphine) | need for per oral pain medication ([5]; after second postoperative day) | pain reported thereafter ([5]; after second postoperative day) | postoperative pain ([5]; after total hip prosthesis one month after 0.8 micrograms infiltration, 1 patient) | postoperative pain (VAS) ([5]; first postoperative day) | postoperative pain (VAS) ([5]; second postoperative day) | pain after injection ([6]; 0.9 mg in 1 ml saline without prior local anesthetics, treated with ice packs and morphine) | postoperative pain ([6]; 0.9 mg injected on(e) week prior to the operation, 1 patient) |
| --- | --- | --- | --- | --- | --- | --- | --- | --- | --- | --- | --- | --- | --- | --- | --- | --- | --- | --- | --- | --- |
| C=C(C)[C@]12C[C@@H](C)[C@@]34O[C@](Cc5ccccc5)(O[C@@H]1[C@@H]3C=C(COC(=O)Cc1ccc(O)c(OC)c1)C[C@]1(O)C(=O)C(C)=C[C@@H]41)O2 [resiniferatoxin] | < 2 | no clinical signs corresponding to a stiff or frozen shoulder were observed | at least 80 ° | none of the patients reported pain | ≤ 15 | did not need further pain medication after the second day after surgery | < 3 | < 3 | able to fully maintain their intraoperatively achieved mobility | ≤ 72 | < 2 | 1 | Moderate | did not need any further per oral pain medication | virtually no pain | moderate to none | 5 | 2 | – | – |
| COc1cc(CNC(=O)CCCC/C=C/C(C)C)ccc1O [capsaicin] | – | – | – | – | – | – | – | – | – | – | – | – | – | – | – | – | – | – | massive pain | almost no postoperative pain |

— patent US20250248968A1, “COMPOSITION COMPRISING CAPSAICIN OR A CAPSACINOID” (MESTEX AG, priority 2019, published 2025)
